Results from US10869871B2, “Compositions and methods of modulating short-chain dehydrogenase activity” (CASE WESTERN RESERVE UNIVERSITY, priority 2013, dated 2020).

How the values were obtained:
[1] = Survival of mice after whole body irradiation; type: in vivo, mouse; conditions: for number of mice surviving: 11 Gy
liver = experiment: Liver regeneration after partial hepatectomy, C57BL/6J mice; type: in vivo; conditions: 5 mg/kg IP bid, one mouse each
[2] = Survival after acetaminophen (Tylenol) LD50 dose 600 mg/kg IP; type: in vivo, mouse; conditions: for number of mice surviving: first dose immediately after Tylenol injection;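 as to all read-outs here: controls were mice given only vehicle, dosed once or twice per day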
blood and bone marrow = experiment: Blood and bone marrow recovery after transplant of 500,000 donor marrow cells; type: in vivo, mouse

With `CCCC[S+]([O-])c1sc2nc(-c3cccs3)cc(-c3ccccc3)c2c1N` (centres unmarked) [SW033291, 2-(butylsulfinyl)-4-phenyl-6-(thiophen-2-yl)thieno[2,3-b]pyridin-3-amine] the “number of mice surviving” value ([1]; 5 mg/kg IP 1 dose/daily for 7 days (Table 7), Day 7) was 3, the “number of mice surviving” value ([1]; 5 mg/kg IP 1 dose/daily for 7 days (Table 7), Day 8) was 2 and the “number of mice surviving” value ([1]; 5 mg/kg IP 1 dose/daily for 7 days (Table 7), Day 9) was 1. The “number of mice surviving” value ([1]; 5 mg/kg IP 1 dose/daily for 7 days (Table 7), Day 10) was 0, the “number of mice surviving” value ([1]; 5 mg/kg IP 1 dose/daily, continuous every day, Day 0) was 3 and the “number of mice surviving” value ([1]; 5 mg/kg IP 1 dose/daily, continuous every day, Day 5) was 3. The “number of mice surviving” value ([1]; 5 mg/kg IP 1 dose/daily, continuous every day, Day 6) was 3, the “number of mice surviving” value ([1]; 5 mg/kg IP 1 dose/daily, continuous every day, Day 7) was 3 and the “number of mice surviving” value ([1]; 5 mg/kg IP 1 dose/daily, continuous every day, Day 8) was 3. For the same molecule, the “number of mice surviving” value ([1]; 5 mg/kg IP 1 dose/daily, continuous every day, Day 9) was 2, the “number of mice surviving” value ([1]; 5 mg/kg IP 1 dose/daily, continuous every day, Day 10) was 0 and the “number of mice surviving” value ([1]; 5 mg/kg IP 2 dose daily for 7 days, Day 0) was 3. The “number of mice surviving” value ([1]; 5 mg/kg IP 2 dose daily for 7 days, Day 5) was 3, the “number of mice surviving” value ([1]; 5 mg/kg IP 2 dose daily for 7 days, Day 6) was 3 and the “number of mice surviving” value ([1]; 5 mg/kg IP 2 dose daily for 7 days, Day 7) was 3. For the same molecule, the “number of mice surviving” value ([1]; 5 mg/kg IP 2 dose daily for 7 days, Day 8) was 3, the “number of mice surviving” value ([1]; 5 mg/kg IP 2 dose daily for 7 days, Day 9) was 2 and the “number of mice surviving” value ([1]; 5 mg/kg IP 2 dose daily for 7 days, Day 10) was 0. For the same molecule, the “longer survival versus vehicle” value ([1]; 11Gy, 5 mg/kg IP daily for 7 doses) was 48 h, the “number of mice surviving” value ([1]; 5 mg/kg IP daily for 7 doses (Table 6), Day 0) was 3 and the “number of mice surviving” value ([1]; 5 mg/kg IP daily for 7 doses (Table 6), Day 5) was 3. The “number of mice surviving” value ([1]; 5 mg/kg IP daily for 7 doses (Table 6), Day 6) was 3, the “number of mice surviving” value ([1]; 5 mg/kg IP daily for 7 doses (Table 6), Day 7) was 3 and the “number of mice surviving” value ([1]; 5 mg/kg IP daily for 7 doses (Table 6), Day 8) was 3. The “number of mice surviving” value ([1]; 5 mg/kg IP daily for 7 doses (Table 6), Day 9) was 2, the “number of mice surviving” value ([1]; 5 mg/kg IP daily for 7 doses (Table 6), Day 10) was 0 and the “longer survival on average versus vehicle” value ([1]; 11Gy, any of the 5 mg/kg dosing schedules) was 1 to 2 days. For the same molecule, the “serum ALT levels versus control” value (liver) was “lower”, the survival versus control ([2]; 5 mg/kg IP beginning immediately following acetaminophen, once or twice daily, through 120 hours) was “No difference” and the “Survival (number of mice)” value ([2]; 5 mg/kg IP bid from 3 hours prior to acetaminophen, 6 doses, cohort of 6, 0 hrs) was 6. The “Survival (number of mice)” value ([2]; 5 mg/kg IP bid from 3 hours prior to acetaminophen, 6 doses, cohort of 6, 16 hr) was 6, the “Survival (number of mice)” value ([2]; 5 mg/kg IP bid from 3 hours prior to acetaminophen, 6 doses, cohort of 6, 24 hrs) was 5 and the “Survival (number of mice)” value ([2]; 5 mg/kg IP bid from 3 hours prior to acetaminophen, 6 doses, cohort of 6, 48 hrs) was 3. The “Survival (number of mice)” value ([2]; 5 mg/kg IP bid from 3 hours prior to acetaminophen, 6 doses, cohort of 6, 64 hrs) was 3, the “Survival (number of mice)” value ([2]; 5 mg/kg IP bid from 3 hours prior to acetaminophen, 6 doses, cohort of 6, 72 hrs) was 3 and the “Survival (number of mice)” value ([2]; 5 mg/kg IP bid from 3 hours prior to acetaminophen, 6 doses, cohort of 6, 88 hr) was 3. The “Survival (number of mice)” value ([2]; 5 mg/kg IP bid from 3 hours prior to acetaminophen, 6 doses, cohort of 6, 96 hr) was 3, the “Survival (number of mice)” value ([2]; 5 mg/kg IP bid from 3 hours prior to acetaminophen, 6 doses, cohort of 6, 112 hr) was 3 and the “Survival (number of mice)” value ([2]; 5 mg/kg IP bid from 3 hours prior to acetaminophen, 6 doses, cohort of 6, 120 hr) was 3. For the same molecule, the “Survival (number of mice)” value ([2]; 5 mg/kg IP bid from 48 hours prior to acetaminophen, 9 doses, cohort of 12, 0 hrs) was 12, the “Survival (number of mice)” value ([2]; 5 mg/kg IP bid from 48 hours prior to acetaminophen, 9 doses, cohort of 12, 16 hr) was 12 and the “Survival (number of mice)” value ([2]; 5 mg/kg IP bid from 48 hours prior to acetaminophen, 9 doses, cohort of 12, 24 hrs) was 12. For the same molecule, the “Survival (number of mice)” value ([2]; 5 mg/kg IP bid from 48 hours prior to acetaminophen, 9 doses, cohort of 12, 40 hrs) was 11, the “Survival (number of mice)” value ([2]; 5 mg/kg IP bid from 48 hours prior to acetaminophen, 9 doses, cohort of 12, 48 hrs) was 10 and the “Survival (number of mice)” value ([2]; 5 mg/kg IP bid from 48 hours prior to acetaminophen, 9 doses, cohort of 12, 64 hrs) was 10. The “Survival (number of mice)” value ([2]; 5 mg/kg IP bid from 48 hours prior to acetaminophen, 9 doses, cohort of 12, 72 hrs) was 10, the “Survival (number of mice)” value ([2]; 5 mg/kg IP bid from 48 hours prior to acetaminophen, 9 doses, cohort of 12, 88 hr) was 10 and the “Survival (number of mice)” value ([2]; 5 mg/kg IP bid from 48 hours prior to acetaminophen, 9 doses, cohort of 12, 96 hr) was 10. The “Survival (number of mice)” value ([2]; 5 mg/kg IP bid from 48 hours prior to acetaminophen, 9 doses, cohort of 12, 112 hr) was 10, the “Survival (number of mice)” value ([2]; 5 mg/kg IP bid from 48 hours prior to acetaminophen, 9 doses, cohort of 12, 120 hr) was 10 and the “number of mice surviving” value ([2]; 1 dose daily, cohort of 6, 0 hrs) was 6. For the same molecule, the “number of mice surviving” value ([2]; 1 dose daily, cohort of 6, 16 hr) was 6, the “number of mice surviving” value ([2]; 1 dose daily, cohort of 6, 24 hrs) was 6 and the “number of mice surviving” value ([2]; 2 dose daily, cohort of 6, 0 hrs) was 6. The “number of mice surviving” value ([2]; 2 dose daily, cohort of 6, 16 hr) was 6, the “number of mice surviving” value ([2]; 2 dose daily, cohort of 6, 24 hrs) was 6 and the “number of mice surviving” value ([2]; 2 dose daily, cohort of 6, 48 hrs) was 3. The “number of mice surviving” value ([2]; 2 dose daily, cohort of 6, 64 hrs) was 3, the “number of mice surviving” value ([2]; 2 dose daily, cohort of 6, 72 hrs) was 3 and the “number of mice surviving” value ([2]; 2 dose daily, cohort of 6, 88 hr) was 3. For the same molecule, the “number of mice surviving” value ([2]; 2 dose daily, cohort of 6, 96 hr) was 3, the “number of mice surviving” value ([2]; 2 dose daily, cohort of 6, 112 hr) was 3 and the “number of mice surviving” value ([2]; 2 dose daily, cohort of 6, 120 hr) was 3. For the same molecule, the “total platelet count versus control” value (blood and bone marrow; day 5 after transplant) was “significantly higher total platelet count”, the “total white count versus control” value (blood and bone marrow; day 5 after transplant) was “significantly higher total white count” and the platelets (blood and bone marrow; day 8 after transplant) was 77,000. For the same molecule, the neutrophils (blood and bone marrow; day 12 after transplant) was 332 and the neutrophils (blood and bone marrow; day 18 after transplant) was 835.
